Experimental data as given in patent US11858879B2, “PARG inhibitors and method of use thereof” (City of Hope, priority 2017, dated 2024).

Target: T1, PARG (Homo sapiens, UniProt Q86W56)
T1 construct: Recombinant full length PARG protein is generated from Sf9 insect cells; made in house; host or cells: Sf9 insect cells
Assay: PAR digestion assay (dot blotting with anti-PAR antibody)
Assay type: biochemical
Settings: PARG incubated with PAR for 20 min at room temperature with or without inhibitors, dot blot with anti-PAR antibody
Procedure: Development of potent and cell-permeant PARG inhibitors via multi-step virtual screening and hierarchical selection. Forty candidates from National Cancer Institute (NCI) were selected to examine the efficacy of PARG inhibition by dot blot assay. PARG was incubated with PAR for 20 min at room temperature with or without inhibitors. PAR-digestion results were analyzed using dot blotting with anti-PAR antibody. […] PC and NC mean positive control (PAR only) and negative control (no inhibitor), respectively. IC50 value of compound 34 was measured by dot blotting with anti-PAR antibody in a dose course of compound 34.
PAR digestion assay: Recombinant PARG protein were incubated with PAR (10 μM, calculated as the ADP-ribose unit) and DMSO (Negative control, NC) or small molecules for 20 minutes at room temperature. Positive control (PC) only contains PAR in PBS. Samples were spotted onto a nitrocellulose membrane. The membrane was blocked with TBST buffer (0.15 M NaCl, 0.01 M Tris-HCl at pH 7.4, 0.1% Tween 20) supplemented with 5% milk and extensively washed with TBST. The membrane was examined by anti-PAR antibody.
Recombinant full length PARG protein is generated from Sf9 insect cells. Recombinant PAR is purified from a biochemical assay using PARP1. PARG is incubated with PAR in the presence of DMSO (Negative control, NC) or small chemical compounds for 20 minutes at room temperature. […]

T1 sequence (Q86W56 whole entry): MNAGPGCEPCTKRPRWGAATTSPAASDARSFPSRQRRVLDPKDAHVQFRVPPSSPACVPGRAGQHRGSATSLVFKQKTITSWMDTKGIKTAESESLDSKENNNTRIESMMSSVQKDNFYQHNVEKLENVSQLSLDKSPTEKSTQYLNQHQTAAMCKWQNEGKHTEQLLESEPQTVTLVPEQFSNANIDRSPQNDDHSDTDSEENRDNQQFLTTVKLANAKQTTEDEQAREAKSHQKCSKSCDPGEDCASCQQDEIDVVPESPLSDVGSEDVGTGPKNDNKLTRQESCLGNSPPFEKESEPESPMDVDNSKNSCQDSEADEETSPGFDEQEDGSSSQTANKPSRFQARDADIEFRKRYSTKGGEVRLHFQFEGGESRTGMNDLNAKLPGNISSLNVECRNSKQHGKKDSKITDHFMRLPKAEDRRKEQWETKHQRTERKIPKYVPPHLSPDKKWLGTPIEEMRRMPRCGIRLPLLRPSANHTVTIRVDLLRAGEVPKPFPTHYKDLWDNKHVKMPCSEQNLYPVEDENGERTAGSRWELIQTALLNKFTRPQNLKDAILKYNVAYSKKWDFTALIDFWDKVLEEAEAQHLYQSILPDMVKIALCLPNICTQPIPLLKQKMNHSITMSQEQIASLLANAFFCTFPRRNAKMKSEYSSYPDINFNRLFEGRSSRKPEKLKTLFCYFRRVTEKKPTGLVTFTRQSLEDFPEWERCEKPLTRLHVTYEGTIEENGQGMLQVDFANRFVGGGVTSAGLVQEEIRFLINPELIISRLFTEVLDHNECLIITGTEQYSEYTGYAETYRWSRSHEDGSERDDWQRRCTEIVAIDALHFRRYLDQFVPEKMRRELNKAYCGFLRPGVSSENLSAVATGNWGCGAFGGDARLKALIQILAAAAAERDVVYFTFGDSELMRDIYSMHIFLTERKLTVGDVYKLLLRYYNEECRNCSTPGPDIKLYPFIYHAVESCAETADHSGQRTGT

inhibitory activity for PARG: inhibitory activity | inhibitory activity for PARG (listed as #34): good inhibitory activity
Compound: Cc1ccc(S/N=C/c2c(O)ccc3ccccc23)cc1 [Compound 34]
